Structures can show the parent of a compound that is named as a salt. Where two headings read alike, the source gives them in different places. Where only a bound is given, the exact number is not on record here.

One data set has as its system Calu3 cells. How it is done: (§1) Compounds were acoustically transferred into black 384 well optical bottom plates (Nunc-UK). Calu-3 and Vero cells were maintained as described for the infection assay and seeded in the assay-ready plates at a density of 3×10^3 cells/well for Vero cells, and 9×10^3 cells/well for Calu-3 cells. Plates were incubated for 72 h at 37° C. and 5% CO2. To assess cell toxicity, CellTox™ Green Cytotoxicity Assay (Promega-UK) was undertaken following the manufacturer's instructions. Plates were incubated for 15 min prior to recording fluorescence (480/520 nm) using a […] (CLARIOstar Plus; BMG LABTECH, UK).

The next data set concerns Vero cells. The method, then:
as §1

Another data set relates to SARS-COV-2 NSP12 RNA. The experiment in a line: RT-qPCR of viral NSP12 RNA in infected Calu3 cells. The format is cell-based. A general note: In qPCR the cycle at which signal appears reflects the starting amount.
The test system of data set [1] is SARS-COV-2. The experiment in a line: microbe, parasite or virus in culture. The note with it: Severe acute respiratory syndrome coronavirus 2, Calu-3, in Homo sapiens, read-out: protection from infection of SARS-COV-2 (percent inhibition of CPE).
Data set [2] concerns SARS-COV-2. The format is cell-based.
Data set [3] deals with SARS-COV-2. The experiment in a line: microbe, parasite or virus in culture. The format is cell-based. The settings on record: for decrease in the amount of virus released from infected Calu3 cells: pretreatment 24 h, PHE strain MOI 0.1, plaque assay; for IC50: Severe acute respiratory syndrome coronavirus 2, Calu-3, drug alone, infected Calu3 cells, pre-treated 24 hours prior to infection, 6 concentrations.

Data set [4] concerns SARS-COV-2. The note with it: 5 μM, Calu3 and Vero cells, MOI 0.1, CPE 3 days post infection.

Turning to `CN1CCC(=C2c3ccccc3CCc3cccnc32)CC1` [Azatadine], the “cytotoxicity on Calu3 cells” value in the data set with Calu3 cells is “not cytotoxic”. The “cytotoxicity on Vero cells” value in the data set on Vero cells is on record as “not cytotoxic”. In addition, the “reduction of viral NSP12 RNA levels” value with SARS-COV-2 NSP12 RNA (5 μM, infected Calu3 cells) is roughly 50%. Also, the “levels of viral NSP12 RNA” value in the data set with SARS-COV-2 NSP12 RNA (both concentrations (5 and 25 μM), RT-qPCR) is listed as “substantially reduced”. In the data set with IFNλ, the “IFNλ release and/or activity (expression)” value (“IFNλ release and/or activity” for short) was “enhanced the release and/or activity of IFNλ”, the SARS-COV-2-mediated cytotoxicity entry is recorded as “robustly inhibited” and the “rank among interferon-enhancing drugs” value is recorded as “top 1%”. In addition, in the data set on IFNλ (listed as Azatadine maleate), the “IFNλ release and/or activity” value was “increase IFN-λ expression”. In addition, the inhibition (usually the share of the control response that was lost under treatment) at 5 µM with SARS-COV-2 [1] was no less than 90%. For the same molecule, the “reduction of virus growth kinetics” value with SARS-COV-2 [2] is 10^2 PFU/mL. Also, the “SARS-COV-2 titres following treatment” value with SARS-COV-2 [2] (donor #311, 25 μM) is listed as “no difference”. For the same molecule, in the data set with SARS-COV-2 [3] (5 μM), the “decrease in the amount of virus released from infected Calu3 cells” value (shortened to “decrease in the amount of virus released”) is roughly 100 fold. Further, the “decrease in the amount of virus released” value in the data set with SARS-COV-2 [3] (25 μM) is roughly 5000 fold. Moreover, in the data set on SARS-COV-2 [3], the IC50 (commonly the concentration needed to halve the response being measured) was roughly 4900 nM. For the same molecule, in the data set on SARS-COV-2 [3] (both concentrations (5 and 25 μM), plaque assay), the “levels of mature infectious viral particles released from infected cells” value is “substantially reduced”.

Take `CN1CCC(=C2c3ccccc3C=Cc3ccccc32)CC1` [Cyproheptadine]: in the data set with SARS-COV-2 [4], the “antiviral effects in the screens” value is “did not show any antiviral effects”.

On to `O=C(O)COCCN1CCN([C@H](c2ccccc2)c2ccc(Cl)cc2)CC1` [Levocetirizine Dihydrochloride], for which, in the data set on IFNλ, the “IFNλ release and/or activity” value is recorded as “enhanced IFNλ release and/or activity” and the SARS-COV-2-mediated cytotoxicity result is listed as “failed to inhibit cytotoxicity”.

For `CCC(CC)COC(=O)[C@H](C)N[P@](=O)(OC[C@H]1O[C@@](C#N)(c2ccc3c(N)ncnn23)[C@H](O)[C@@H]1O)Oc1ccccc1` [Remdesivir], the “reduction of virus growth kinetics” value in the data set on SARS-COV-2 [2] was 10^3 PFU/mL. In addition, the “reduction in viral titres relative to the DMSO control” value in the data set on SARS-COV-2 [2] (donor #311, 1 μM) is reported as 1.47 log10. Besides, the “decrease in the amount of virus released” value in the data set on SARS-COV-2 [3] (1 μM) was roughly 5000 fold. Further, in the data set with SARS-COV-2 [3], the IC50 was roughly 190 nM.

The record behind these values is patent US20240165096A1, “Anti Viral Therapy” (priority 2021, published 2024).
